Experimental data as given in publication PMC5645029 (Journal of medicinal chemistry, 2017).
Entries after “also recorded” stand apart in the source; their conditions may differ. Values belong to the molecule of their own block, whether it stands above or below them. Non-standard residues stand in square brackets, D forms with d. Residues, ends and D or L forms follow the SMILES beside them.

Key:
mMC5R [1] = target: T1, mMC5R (Mus musculus, UniProt P41149)
mMC4R [2] = target: T2, mMC4R (Mus musculus, UniProt P56450); experiment: AlphaScreen cAMP assay, agonist activity; details: up to 100 μM concentrations
mMC3R [3] = target: T3, mMC3R (Mus musculus, UniProt P33033); experiment: AlphaScreen cAMP assay, antagonist activity; details: Schild paradigm, NDP-MSH
mMC3R [4] = target: T3, mMC3R; experiment: AlphaScreen cAMP assay, agonist activity; details: up to 100 μM concentrations
mMC4R [5] = target: T2, mMC4R; details: for fold less potent at the MC4R compared to 1: antagonist potency relative to 1
mMC5R [6] = target: T1, mMC5R; experiment: cell-based
MC5R = details: at 100 μM concentrations, β-galactosidase assay; cited from earlier work
mMC1R = mMC1R (Mus musculus, UniProt Q01727); experiment: AlphaScreen cAMP assay, agonist activity; details: up to 100 μM concentrations
[7] = target: mouse melanocortin-4 receptor (mouse) (UniProt P56450)
[8] = target: mouse melanocortin-3 receptor (mouse) (UniProt P33033)
[9] = target: mouse melanocortin-1 receptor (mouse) (UniProt Q01727)
[10] = target: mouse melanocortin-5 receptor (mouse) (UniProt P41149)
Chain of mouse melanocortin-5 receptor (mouse) (P41149 whole entry): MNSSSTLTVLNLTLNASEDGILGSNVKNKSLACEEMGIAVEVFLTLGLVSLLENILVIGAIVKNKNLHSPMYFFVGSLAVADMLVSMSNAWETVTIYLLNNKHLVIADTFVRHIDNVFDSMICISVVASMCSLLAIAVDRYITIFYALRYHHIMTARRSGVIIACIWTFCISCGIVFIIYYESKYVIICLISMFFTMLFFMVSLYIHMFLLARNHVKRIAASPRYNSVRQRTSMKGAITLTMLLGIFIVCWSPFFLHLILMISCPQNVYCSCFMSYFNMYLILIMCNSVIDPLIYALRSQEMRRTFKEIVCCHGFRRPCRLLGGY

Chain of mouse melanocortin-4 receptor (mouse) (P56450 whole entry): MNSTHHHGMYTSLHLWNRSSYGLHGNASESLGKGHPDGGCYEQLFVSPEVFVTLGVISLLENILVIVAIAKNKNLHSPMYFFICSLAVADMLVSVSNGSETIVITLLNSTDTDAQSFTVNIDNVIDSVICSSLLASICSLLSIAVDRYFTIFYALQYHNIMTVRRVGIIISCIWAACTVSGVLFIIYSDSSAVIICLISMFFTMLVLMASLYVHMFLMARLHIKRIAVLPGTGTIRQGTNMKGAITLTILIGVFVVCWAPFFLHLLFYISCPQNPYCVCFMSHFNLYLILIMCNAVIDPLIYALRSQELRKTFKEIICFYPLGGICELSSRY
T2 sequence (P56450 whole entry): as above
T1 sequence (P41149 whole entry): as the sequence (P41149 whole entry) above
Chain of mouse melanocortin-3 receptor (mouse) (P33033 whole entry): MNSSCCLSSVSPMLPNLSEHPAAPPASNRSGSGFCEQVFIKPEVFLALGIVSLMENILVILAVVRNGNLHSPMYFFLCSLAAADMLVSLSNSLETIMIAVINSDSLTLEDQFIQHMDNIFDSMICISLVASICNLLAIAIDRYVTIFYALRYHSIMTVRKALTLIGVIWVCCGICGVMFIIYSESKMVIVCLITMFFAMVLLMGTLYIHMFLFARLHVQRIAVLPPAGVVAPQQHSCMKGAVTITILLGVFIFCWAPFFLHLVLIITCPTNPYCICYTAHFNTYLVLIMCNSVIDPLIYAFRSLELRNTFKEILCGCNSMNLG
T3 sequence (P33033 whole entry): as above
Chain of mMC1R (Q01727 whole entry): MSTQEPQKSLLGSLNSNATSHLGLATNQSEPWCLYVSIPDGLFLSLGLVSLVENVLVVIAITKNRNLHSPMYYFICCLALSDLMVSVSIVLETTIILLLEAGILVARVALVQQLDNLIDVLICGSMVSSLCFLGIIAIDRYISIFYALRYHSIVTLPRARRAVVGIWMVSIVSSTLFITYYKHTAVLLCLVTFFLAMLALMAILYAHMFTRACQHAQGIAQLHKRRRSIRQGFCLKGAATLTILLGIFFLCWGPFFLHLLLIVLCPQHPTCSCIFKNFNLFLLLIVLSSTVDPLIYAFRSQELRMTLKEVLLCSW
Chain of mouse melanocortin-1 receptor (mouse) (Q01727 whole entry): as above

Molecule: N=C(N)NCCC[C@@H]1NC(=O)[C@@H]2CCCN2C(=O)[C@H]2CCCN2C(=O)[C@H](Cc2ccccc2)NC(=O)[C@H](CCC(=O)O)NC(=O)[C@H](CC(N)=O)NC(=O)[C@H](Cc2ccccc2)NC(=O)[C@H](Cc2ccccc2)NC1=O [Peptide 17, c[Pro-Arg-Phe-Phe-Asn-Glu-Phe-DPro]] (cyclo(RFFNEF[dP]P))
activity at the MC5R (in words) (mMC5R [1]): no activity
agonist activity at the MC4R (in words) (mMC4R [2]): did not result in observable agonist or antagonist activity
antagonist activity at the MC3R (in words) (mMC3R [3]): did not result in observable agonist or antagonist activity; also recorded: did not possess antagonist activity
agonist activity at the MC3R (in words) (mMC3R [4]): did not result in observable agonist or antagonist activity

Molecule: CCCC[C@@H]1NC(=O)[C@H](Cc2ccccc2)NC(=O)[C@H](Cc2ccccc2)NC(=O)[C@H](CCCNC(=N)N)NC(=O)[C@@H]2CCCN2C(=O)[C@H]2CCCN2C(=O)[C@H](Cc2ccccc2)NC(=O)[C@H](C)NC1=O [Peptide 11, c[Pro-Arg-Phe-Phe-Nle-Ala-Phe-DPro]]
activity at the MC5R (in words) (mMC5R [1]): no activity
fold less potent at the MC4R compared to 1 (mMC4R [5]): at least 8 fold

EC50 (mMC5R [6]): 0.06 µM
Molecule: C[C@@H]1NC(=O)[C@H](CN)NC(=O)[C@H](Cc2ccccc2)NC(=O)[C@H](Cc2ccccc2)NC(=O)[C@H](CCCNC(=N)N)NC(=O)[C@@H]2CCCN2C(=O)[C@H]2CCCN2C(=O)[C@H](Cc2ccccc2)NC1=O [Peptide 2, c[Pro-Arg-Phe-Phe-Dap-Ala-Phe-DPro]]
activity at the MC5R (MC5R): no activity

fold more potent at the MC4R compared to 13 (mMC4R [5]; antagonist potency relative to 13): 70 fold
agonist activity at the MC4R (in words) (mMC4R [2]): No agonist activity
agonist activity at the MC1R (in words) (mMC1R): No agonist activity
EC50 (mMC5R [6]): 0.05 µM
agonist activity at the MC3R (in words) (mMC3R [4]): No agonist activity
Molecule: C[C@@H]1NC(=O)[C@H]([C@@H](C)O)NC(=O)[C@H](Cc2ccccc2)NC(=O)[C@H](Cc2ccccc2)NC(=O)[C@H](CCCNC(=N)N)NC(=O)[C@@H]2CCCN2C(=O)[C@H]2CCCN2C(=O)[C@H](Cc2ccccc2)NC1=O [Peptide 6, c[Pro-Arg-Phe-Phe-Thr-Ala-Phe-DPro]] (cyclo(RFFTAF[dP]P))

fold less potent at the MC4R compared to 1 (mMC4R [5]): 8 fold
antagonist activity at the MC3R (in words) (mMC3R [3]): did not possess antagonist activity
EC50 (mMC5R [6]): 0.25 µM
Molecule: C[C@@H]1NC(=O)[C@H](C)NC(=O)[C@H](Cc2ccccc2)NC(=O)[C@H](Cc2ccccc2)NC(=O)[C@H](CCCNC(=N)N)NC(=O)[C@@H]2CCCN2C(=O)[C@H]2CCCN2C(=O)[C@H](Cc2ccccc2)NC1=O [Peptide 3, c[Pro-Arg-Phe-Phe-Ala-Ala-Phe-DPro]]

agonist activity at the MC4R (in words) (mMC4R [2]): no agonist activity
agonist activity at the MC1R (in words) (mMC1R): no agonist activity
antagonist activity at the MC3R (in words) (mMC3R [3]): did not possess antagonist activity
agonist activity at the MC3R (in words) (mMC3R [4]): no agonist activity
Molecule: C[C@@H]1NC(=O)[C@H](CC(=O)O)NC(=O)[C@H](Cc2ccccc2)NC(=O)[C@H](Cc2ccccc2)NC(=O)[C@H](CCCNC(=N)N)NC(=O)[C@@H]2CCCN2C(=O)[C@H]2CCCN2C(=O)[C@H](Cc2ccccc2)NC1=O [Peptide 7, c[Pro-Arg-Phe-Phe-Asp-Ala-Phe-DPro]]

fold less potent at the MC4R compared to 1 (mMC4R [5]): 16 fold
antagonist activity at the MC3R (in words) (mMC3R [3]): did not result in measurable activity
EC50 (mMC5R [6]): 0.7 µM
agonist activity at the MC3R (in words) (mMC3R [4]): did not result in measurable activity
Molecule: C[C@@H]1NC(=O)[C@H](CCC(=O)O)NC(=O)[C@H](Cc2ccccc2)NC(=O)[C@H](Cc2ccccc2)NC(=O)[C@H](CCCNC(=N)N)NC(=O)[C@@H]2CCCN2C(=O)[C@H]2CCCN2C(=O)[C@H](Cc2ccccc2)NC1=O [Peptide 8, c[Pro-Arg-Phe-Phe-Glu-Ala-Phe-DPro]]

Molecule: C[C@@H]1NC(=O)[C@H](CC(N)=O)NC(=O)[C@H](Cc2ccccc2)NC(=O)[C@H](Cc2ccccc2)NC(=O)[C@H](CCCNC(=N)N)NC(=O)[C@@H]2CCCN2C(=O)[C@H]2CCCN2C(=O)[C@H](Cc2ccccc2)NC1=O [Peptide 1, c[Pro-Arg-Phe-Phe-Asn-Ala-Phe-DPro]]
activity at the MC5R (MC5R): no activity

agonist EC50 (cAMP AlphaScreen, HEK293 cells stably expressing the receptor) [7]: > 100 µM
agonist EC50 (cAMP AlphaScreen, HEK293 cells stably expressing the receptor) [8]: > 100 µM
agonist EC50 (cAMP AlphaScreen, HEK293 cells stably expressing the receptor) [9]: > 100 µM
agonist EC50 (cAMP AlphaScreen, HEK293 cells stably expressing the receptor) [10]: > 100 µM
Molecule: c[Pro-Arg-Phe-Phe-Nle-Ala-Phe-DPro] (peptide)

Molecule: CC[C@@H]1NC(=O)[C@H](Cc2ccccc2)NC(=O)[C@H](Cc2ccccc2)NC(=O)[C@H](CCCNC(=N)N)NC(=O)[C@@H]2CCCN2C(=O)[C@H]2CCCN2C(=O)[C@H](Cc2ccccc2)NC(=O)[C@H](C)NC1=O [Peptide 4, c[Pro-Arg-Phe-Phe-Abu-Ala-Phe-DPro]]
antagonist activity at the MC3R (in words) (mMC3R [3]): did not possess antagonist activity
EC50 (mMC5R [6]): 0.16 µM

Molecule: N=C(N)NCCC[C@@H]1NC(=O)[C@@H]2CCCN2C(=O)[C@H]2CCCN2C(=O)[C@H](Cc2ccccc2)NC(=O)[C@H](CC(=O)O)NC(=O)[C@H](CC(N)=O)NC(=O)[C@H](Cc2ccccc2)NC(=O)[C@H](Cc2ccccc2)NC1=O [Peptide 16, c[Pro-Arg-Phe-Phe-Asn-Asp-Phe-DPro]] (cyclo(RFFNDF[dP]P))
agonist activity at the MC4R (in words) (mMC4R [2]): did not result in observable agonist or antagonist activity
antagonist activity at the MC3R (in words) (mMC3R [3]): did not result in observable agonist or antagonist activity; also recorded: did not possess antagonist activity
agonist activity at the MC3R (in words) (mMC3R [4]): did not result in observable agonist or antagonist activity

agonist EC50 (cAMP AlphaScreen, HEK293 cells stably expressing the receptor) [7]: > 100 µM
agonist EC50 (cAMP AlphaScreen, HEK293 cells stably expressing the receptor) [8]: > 100 µM
agonist EC50 (cAMP AlphaScreen, HEK293 cells stably expressing the receptor) [10]: > 100 µM
B1: c[Pro-Arg-Phe-Phe-Asn-His-Phe-DPro] (peptide)
peptide: cyclo(PRFFNHF[dP])
SMILES: N=C(N)NCCC[C@@H]1NC(=O)[C@@H]2CCCN2C(=O)[C@H]2CCCN2C(=O)[C@H](Cc2ccccc2)NC(=O)[C@H](Cc2c[nH]cn2)NC(=O)[C@H](CC(N)=O)NC(=O)[C@H](Cc2ccccc2)NC(=O)[C@H](Cc2ccccc2)NC1=O

agonist EC50 (cAMP AlphaScreen, HEK293 cells stably expressing the receptor) [10]: > 100 µM
B2: c[Pro-Arg-Phe-Phe-Asn-Leu-Phe-DPro] (peptide)
peptide: cyclo(PRFFNLF[dP])
SMILES: CC(C)C[C@@H]1NC(=O)[C@H](CC(N)=O)NC(=O)[C@H](Cc2ccccc2)NC(=O)[C@H](Cc2ccccc2)NC(=O)[C@H](CCCNC(=N)N)NC(=O)[C@@H]2CCCN2C(=O)[C@H]2CCCN2C(=O)[C@H](Cc2ccccc2)NC1=O

agonist EC50 (cAMP AlphaScreen, HEK293 cells stably expressing the receptor) [7]: > 100 µM
agonist EC50 (cAMP AlphaScreen, HEK293 cells stably expressing the receptor) [8]: > 100 µM
agonist EC50 (cAMP AlphaScreen, HEK293 cells stably expressing the receptor) [10]: > 100 µM
B3: c[Pro-Arg-Phe-Phe-Asn-Glu-Phe-DPro] (peptide)
peptide: cyclo(PRFFNEF[dP])
SMILES: N=C(N)NCCC[C@@H]1NC(=O)[C@@H]2CCCN2C(=O)[C@H]2CCCN2C(=O)[C@H](Cc2ccccc2)NC(=O)[C@H](CCC(=O)O)NC(=O)[C@H](CC(N)=O)NC(=O)[C@H](Cc2ccccc2)NC(=O)[C@H](Cc2ccccc2)NC1=O

agonist EC50 (cAMP AlphaScreen, HEK293 cells stably expressing the receptor) [7]: > 100 µM
agonist EC50 (cAMP AlphaScreen, HEK293 cells stably expressing the receptor) [8]: > 100 µM
agonist EC50 (cAMP AlphaScreen, HEK293 cells stably expressing the receptor) [9]: > 100 µM
agonist EC50 (cAMP AlphaScreen, HEK293 cells stably expressing the receptor) [10]: > 100 µM
B4: c[Pro-Arg-Phe-Phe-Phe-Ala-Phe-DPro] (peptide)
peptide: cyclo(PRFFFAF[dP])
SMILES: C[C@@H]1NC(=O)[C@H](Cc2ccccc2)NC(=O)[C@H](Cc2ccccc2)NC(=O)[C@H](Cc2ccccc2)NC(=O)[C@H](CCCNC(=N)N)NC(=O)[C@@H]2CCCN2C(=O)[C@H]2CCCN2C(=O)[C@H](Cc2ccccc2)NC1=O
